Experimental findings from US20130018033A1, “RAF INHIBITOR COMPOUNDS AND METHODS OF USE THEREOF” (ARRAY BIOPHARMA INC., priority 2009, published 2013) are described below.

Structures are written as SMILES. pIC50: −log10 of the molar value. Read-outs that look alike come from different tables or passages of the source.

The subject of experiment [1] is basal ERK1/2 phosphorylation in Malme-3M cells. The experiment in a line: Cellular ERK 1/2 phosphorylation assay (Example A1). The class given is cell-based. The settings on record: Homo sapiens, 1 hour incubation, pERK normalized to total ERK, read-out: P-ERK Malme3-M IC50. The procedure, abridged:
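Malme-3M cells (24,000/well, RPMI-1640 with 10% FBS) were treated with compounds for 1 h at 37 °C, 1% DMSO final. Fixed, methanol-permeabilized cells were immunostained for pERK and total ERK and read by infrared fluorescence. pERK signal was normalized to total ERK.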

For experiment [2], the target named is T1, V600E full-length B-Raf (Homo sapiens, UniProt P15056, V600E).
T1 construct: 1 μM FSBA-MEK and 20 nM V600E full-length B-Raf; made in house; host or cells: Sf9 insect cells (baculovirus)
T1 sequence (P15056 whole entry V600E): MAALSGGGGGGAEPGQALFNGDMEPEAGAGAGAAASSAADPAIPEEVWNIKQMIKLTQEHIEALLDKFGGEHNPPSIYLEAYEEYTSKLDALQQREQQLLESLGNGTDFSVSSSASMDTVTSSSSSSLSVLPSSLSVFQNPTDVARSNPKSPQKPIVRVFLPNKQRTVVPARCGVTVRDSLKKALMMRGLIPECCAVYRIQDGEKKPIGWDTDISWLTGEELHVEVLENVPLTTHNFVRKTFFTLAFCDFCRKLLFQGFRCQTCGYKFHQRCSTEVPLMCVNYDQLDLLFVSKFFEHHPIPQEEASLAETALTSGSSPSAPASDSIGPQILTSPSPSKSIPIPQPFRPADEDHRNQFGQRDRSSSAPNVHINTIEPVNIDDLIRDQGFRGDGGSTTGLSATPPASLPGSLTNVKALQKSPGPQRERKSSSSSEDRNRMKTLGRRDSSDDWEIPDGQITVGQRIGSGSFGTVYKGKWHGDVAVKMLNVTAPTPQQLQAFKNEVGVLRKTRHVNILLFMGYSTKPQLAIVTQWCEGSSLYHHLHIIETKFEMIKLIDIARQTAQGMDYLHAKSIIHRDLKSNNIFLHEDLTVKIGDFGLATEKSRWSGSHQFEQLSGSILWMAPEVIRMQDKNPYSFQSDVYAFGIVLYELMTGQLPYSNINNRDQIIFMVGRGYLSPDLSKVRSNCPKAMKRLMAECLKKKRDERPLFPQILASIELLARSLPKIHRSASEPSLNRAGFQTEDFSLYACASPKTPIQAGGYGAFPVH
The experiment in a line: B-Raf IC50 assay (Example A). In kind it is biochemical. Summed up: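 Sf9-expressed full-length V600E B-Raf (20 nM) phosphorylated 1 µM FSBA-modified wild-type MEK with 4 µM ATP plus [γ-33P]ATP in 25 mM Pipes pH 7.2, 100 mM KCl, 10 mM MgCl2. Enzyme and substrate were preincubated 15 min, and the reaction ran 60 min at 22 °C. It was TCA-quenched and filter-captured, and incorporated radioactivity was scintillation-counted.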

Where [3] appears, read: B-Raf V600E assay of Example A, read-out: IC50.
Where [4] appears, read: [γ-33P]ATP incorporation into FSBA-MEK, 4 μM ATP, read-out: BRAF V600E IC50.

For `CCCS(=O)(=O)Nc1ccc(C#N)c(NC(=O)c2ccnc3c(N)ncnc23)c1F` [Example 69, 4-Amino-pyrido[3,2-d]pyrimidine-8-carboxylic acid [6-cyano-2-fluoro-3-(propane-1-sulfonylamino)-phenyl]-amide], the pIC50 in experiment [1] was 6.51; in experiment [2] (setting [3]), over 7.00; in experiment [2] (setting [4]), 7.71.
For `CCCS(=O)(=O)Nc1cc(F)c(F)c(NC(=O)c2cccc3c(N)ncnc23)c1F` [Example 9, 4-Amino-quinazoline-8-carboxylic acid [2,3,6-trifluoro-5-(propane-1-sulfonylamino)-phenyl]-amide] the same measures were 7.92, over 7.00 and 9.41.
Regarding `O=C(Nc1c(F)c(F)cc(NS(=O)(=O)CCCF)c1F)c1cccc2c(NC3CC3)ncnc12` [Example 51, 4-(Cyclopropylamino)-N-(2,3,6-trifluoro-5-(3-fluoropropylsulfonamido)phenyl)quinazoline-8-carboxamide], the pIC50 in experiment [1] was 5.64; in experiment [2] (setting [3]), over 6.00; in experiment [2] (setting [4]) it was 6.85.
Consider `CCCS(=O)(=O)Nc1ccc(F)c(NC(=O)c2cc(F)cc3c(N)ncnc23)c1Cl` [Example 78, 4-Amino-6-fluoro-quinazoline-8-carboxylic acid [2-chloro-6-fluoro-3-(propane-1-sulfonylamino)-phenyl]-amide], for which the values for the pIC50 in experiment [1], in experiment [2] (setting [3]) and in experiment [2] (setting [4]) were 7.80, over 7.00 and 9.31, respectively.
For `Nc1ncnc2c(C(=O)Nc3c(F)ccc(NS(=O)(=O)CCCF)c3F)ccnc12` [Example 66, 4-Amino-pyrido[3,2-d]pyrimidine-8-carboxylic acid [2,6-difluoro-3-(3-fluoro-propane-1-sulfonylamino)-phenyl]-amide] the same measures were 8.52, over 7.00 and 9.12.
For `CCCS(=O)(=O)Nc1ccc(Cl)c(NC(=O)c2cccc3c(N)ncnc23)c1Cl` [Example 7, 4-Amino-quinazoline-8-carboxylic acid [2,6-dichloro-3-(propane-1-sulfonylamino)-phenyl]-amide] the same measures were 8.14, over 7.00 and 10.15.
Take `Nc1ncnc2c(C(=O)Nc3c(F)ccc(NS(=O)(=O)N4CCCC4)c3F)cccc12` [Example 34, 4-Amino-quinazoline-8-carboxylic acid [2,6-difluoro-3-(pyrrolidine-1-sulfonylamino)-phenyl]-amide]: the figures for the pIC50 in experiment [1], in experiment [2] (setting [3]) and in experiment [2] (setting [4]) were 7.81, over 7.00 and 7.90, respectively.
For `Nc1ncnc2c(C(=O)Nc3c(Cl)ccc(NS(=O)(=O)CCCF)c3F)ccnc12` [Example 67, 4-Amino-pyrido[3,2-d]pyrimidine-8-carboxylic acid [6-chloro-2-fluoro-3-(3-fluoro-propane-1-sulfonylamino)-phenyl]-amide] the same measures were 8.55, over 7.00 and 9.38.
For `Cc1ncnc2c(C(=O)Nc3c(F)ccc(NS(=O)(=O)CCCF)c3F)cccc12` [Example 61, 4-Methyl-quinazoline-8-carboxylic acid [2,6-difluoro-3-(3-fluoro-propane-1-sulfonylamino)-phenyl]-amide] the same measures were 6.93, over 7.00 and 7.72.
For `Nc1ncnc2c(C(=O)Nc3c(F)ccc(NS(=O)(=O)CCCF)c3Cl)cccc12` [Example 24, 4-Amino-quinazoline-8-carboxylic acid [2-chloro-6-fluoro-3-(3-fluoro-propane-1-sulfonylamino)-phenyl]-amide] the same measures were 8.39, over 7.00 and 9.85.
On to `CCCS(=O)(=O)Nc1ccc(F)c(NC(=O)c2cc(C#CCO)cc3c(N)ncnc23)c1F` [Example 40, 4-Amino-6-(3-hydroxy-prop-1-ynyl)-quinazoline-8-carboxylic acid [2,6-difluoro-3-(propane-1-sulfonylamino)-phenyl]-amide], for which the pIC50 is 6.80 in experiment [1], over 7.00 in experiment [2] (setting [3]) and 8.66 in experiment [2] (setting [4]).
For `O=C(Nc1c(Cl)ccc(NS(=O)(=O)CCCF)c1F)c1cccc2cncnc12` [Example 59, Quinazoline-8-carboxylic acid [6-chloro-2-fluoro-3-(3-fluoro-propane-1-sulfonylamino)-phenyl]-amide] the same measures were 7.08, over 7.00 and 8.83.
For `Cc1ncnc2c(C(=O)Nc3c(Cl)ccc(NS(=O)(=O)CCCF)c3F)cccc12` [Example 62, 4-Methyl-quinazoline-8-carboxylic acid [6-chloro-2-fluoro-3-(3-fluoro-propane-1-sulfonylamino)-phenyl]-amide] the same measures were 7.36, over 7.00 and 8.51.
For `CCCS(=O)(=O)Nc1ccc(F)c(NC(=O)c2cc(C)cc3c(N)ncnc23)c1F` [Example 70, 4-Amino-6-methyl-quinazoline-8-carboxylic acid [2,6-difluoro-3-(propane-1-sulfonylamino)-phenyl]-amide] the same measures were 8.07, over 7.00 and 8.85.
As for `NC(=O)c1ccc(NS(=O)(=O)CCCF)c(F)c1NC(=O)c1ccnc2c(N)ncnc12` [Example 68, 4-Amino-pyrido[3,2-d]pyrimidine-8-carboxylic acid [6-carbamoyl-2-fluoro-3-(3-fluoro-propane-1-sulfonylamino)-phenyl]-amide], the pIC50 in experiment [1] is 6.91; in experiment [2] (setting [3]), over 7.00; in experiment [2] (setting [4]) it was 7.84.
For `CCCS(=O)(=O)Nc1ccc(F)c(NC(=O)c2cncc3c(N)ncnc23)c1F` [Example 2, 4-Amino-pyrido[4,3-d]pyrimidine-8-carboxylic acid [2,6-difluoro-3-(propane-1-sulfonylamino)-phenyl]-amide] the same measures were 8.02, over 7.00 and 8.90.
For `CCN(C)S(=O)(=O)Nc1ccc(F)c(NC(=O)c2cccc3c(N)ncnc23)c1Cl` [Example 37, 4-Amino-N-(2-chloro-3-(N-ethyl-N-methylsulfamoylamino)-6-fluorophenyl)quinazoline-8-carboxamide], the pIC50 was 7.40 in experiment [1], over 7.00 in experiment [2] (setting [3]) and 7.67 in experiment [2] (setting [4]).
For `Nc1ncnc2c(C(=O)Nc3c(Cl)ccc(NS(=O)(=O)CCCF)c3Cl)cccc12` [Example 27, 4-Amino-quinazoline-8-carboxylic acid [2,6-dichloro-3-(3-fluoro-propane-1-sulfonylamino)-phenyl]-amide] the same measures were 8.39, over 7.00 and 10.10.
For `CN(C)S(=O)(=O)Nc1ccc(F)c(NC(=O)c2cccc3c(N)ncnc23)c1F` [Example 36, 4-Amino-N-(3-(N,N-dimethylsulfamoylamino)-2,6-difluorophenyl)quinazoline-8-carboxamide] the same measures were 7.60, over 7.00 and 7.83.
For `Nc1ncnc2c(C(=O)Nc3c(F)ccc(NS(=O)(=O)c4ccccc4)c3F)cccc12` [Example 32, 4-Amino-quinazoline-8-carboxylic acid (3-benzenesulfonylamino-2,6-difluoro-phenyl)-amide] the same measures were 7.75, over 7.00 and 9.42.
Consider `CCS(=O)(=O)Nc1ccc(F)c(NC(=O)c2cccc3c(N)ncnc23)c1Cl` [Example 20, 4-Amino-quinazoline-8-carboxylic acid (2-chloro-3-ethanesulfonyl-amino-6-fluoro-phenyl)-amide], for which the pIC50 is 7.49 in experiment [1], over 7.00 in experiment [2] (setting [3]) and 8.65 in experiment [2] (setting [4]).
For `CCCS(=O)(=O)Nc1ccc(Cl)c(NC(=O)c2cccc3c(N)ncnc23)c1C#N` [Example 29, 4-Amino-quinazoline-8-carboxylic acid [6-chloro-2-cyano-3-(propane-1-sulfonylamino)-phenyl]-amide], the pIC50 in experiment [1] was 7.60; in experiment [2] (setting [3]), over 7.00; in experiment [2] (setting [4]), 10.10.
Consider `Nc1ncnc2c(C(=O)Nc3c(F)ccc(NS(=O)(=O)c4ccco4)c3F)cccc12` [Example 33, 4-Amino-quinazoline-8-carboxylic acid [2,6-difluoro-3-(furan-2-sulfonylamino)-phenyl]-amide], for which the values for the pIC50 in experiment [1], in experiment [2] (setting [3]) and in experiment [2] (setting [4]) were 7.90, over 7.00 and 9.77, respectively.
As to `CCCS(=O)(=O)Nc1ccc(Cl)c(NC(=O)c2cccc3c(N)ncnc23)c1F` [Example 17, 4-Amino-quinazoline-8-carboxylic acid [6-chloro-2-fluoro-3-(propane-1-sulfonylamino)-phenyl]-amide], the pIC50 was 8.06 in experiment [1] and over 7.00 in experiment [2] (setting [3]). The molecule further displayed an IC50 in experiment [2] (BRAF V600E IC50 (μM), [γ-33P]ATP incorporation into FSBA-MEK, 4 μM ATP) of 0.58 nM.
